“Also recorded” adds a separate entry of the source.
Tests used:
[1] = system: cultured hippocampal neurons; assay: cLTP stimulation and quantification of cell-surface AMPARs in spines of cultured hippocampal neurons; type: cell-based, mouse; settings: [AP5] = 50 µM, [MK-801] = 20 µM, [KN93] = 5 µM, [BFA] = 25 µM; 200 µM glycine 15 min
Experimental: After washing the cells with Hepes-based ACSF, 100 nM PFQX1(AF488) was added to the dish. The cells were scanned to obtain “basal state” images. Then, the cells were washed three times with cLTP stimulation buffer (Hepes-based ACSF except for MgCl2 supplemented with 20 μM bicuculline and 1 μM strychnine) to remove PFQX1(AF488). cLTP was induced by 200 μM glycine in cLTP stimulation buffer for 15 min at room temperature. After washing the cells with cLTP incubation buffer (Hepes-based ACSF supplemented with 20 μM bicuculline and 1 μM strychnine), the cells were incubated for 60 min at room temperature. Last, 100 nM PFQX1(AF488) was added to the dish, and images were scanned to obtain “after cLTP” images. Inhibitors (50 μM AP5 and 20 μM MK-801 for NMDARs and 5 μM KN93 for CaMKII and 25 μM […] for exocytosis) were added to cLTP stimulation buffer and cLTP incubation buffer. To quantify the fluorescence intensity in spines, the average signal intensity of ROIs set on dendritic spines or dendritic shafts was calculated by ZEN blue software after subtracting background fluorescence. The fold change value was calculated using the following equation: (fluorescence intensity of “after cLTP” images)/(fluorescence intensity of “basal state” images).
To label endogenous AMPARs, 10 μM CAM2(TCO) in the culture medium was gently added to the hippocampal neurons on a glass-bottom dish to a final concentration of 2 μM CAM2(TCO). The cells were incubated for 2 hours at 37°C. In the second step, the culture medium was removed, and the cells were treated with 100 nM Tz(ST647) for 5 min in Hepes-based ACSF at room temperature. To quench excess Tz(ST647), 1 μM TCO-OH in Hepes-based ACSF was added. Then, the cells were treated with 100 nM PFQX1(AF488). Imaging was performed with confocal microscopy.

AMPARs [2] = assay: Staining of AMPARs in acute cerebellar slices; type: binding, mouse; settings: 10 µM NBQX with 30 nM PFQX1(AF488), 5 min; molecular layer
Experimental: following secondary antibodies were used: donkey anti-mouse CF568 conjugated (Sigma, […]
1:1,000) and anti-rabbit Alexa Fluor Plus 488 conjugated (Invitrogen, A32731, 1,000).
Imaging was performed with confocal microscopy.
With two-step labeling, the cells were labeled as described in “Two -step labeling and PFQX1(AF488)staining in cultured neurons,” followed by immunostaining.
In fig. S9A, the cells were incubated with 500 nM CellTracker Red CMPTX (Invitrogen) instead of Calcein Red AM for 30 min at 37 °C to visualize the intracellular region before the immunostaining.
Preparation and staining of cerebellar acute brain slices
C57BL/6J mice (3 weeks) were anesthetized with isoflurane, and their brains were isolated and immediately transferred to ice-cold cutting solution buffer (120 mM Choline Chloride, 3 mM KCl, 8 mM MgCl2, 1.25 mM NaH2PO4, 28 mM NaHCO3, 22 mM Glucose, and 0.5 mM Sodium ascorbate) gassed with 5% CO2 and 95% O2 and incubated for 5 min. Sagittal cerebellar slices were cut with a microslicer (Neo-linear slicer NLS-MT; DOSAKA EM) in cutting solution buffer and then incubated in ACSF […]
NaHCO3, 10 mM Glucose) gassed with 5% CO 2 and 95% O 2 at 37 °C.
Acute slices were transferred to glass bottom dishes and treated with 30 nM PFQX1(AF488) in HEPES-based ACSF for 5 min. […]
Scale bars, 500 µm. (F) Quantification of probe intensity in Ε. […]

native AMPARs = assay: Concentration-dependent binding of PFQX1(AF488) to AMPARs in primary cultured hippocampal neurons; design: species or system mouse; settings: 10 µM NBQX added after 100 nM PFQX1(AF488); cultured hippocampal neurons
Experimental: We modified the Banker’s culture method of hippocampal neurons ([59]). Glass-bottom dishes (14 mm φ, Matsunami) were coated with poly-D-lysine (Sigma-Aldrich) and washed three times with sterile dH2O. Hippocampi from 16-day-old ICR mouse embryos were aseptically dissected and digested with 0.25% (w/v) trypsin (Nacalai Tesque) for 20 min at 37°C. The cells were resuspended in Neurobasal Plus medium supplemented with 10% FBS, 1 mM GlutaMAX I (Invitrogen), penicillin (100 U/ml), and streptomycin (100 μg/ml) and filtered by Cell Strainer (100 μm, Falcon) followed by centrifugation at 1000 rpm for 5 min. The cells were resuspended in Neurobasal Plus medium supplemented with 2% of B-27 Plus Supplement, 1 mM GlutaMAX I (Invitrogen), penicillin (100 U/ml), and streptomycin (100 μg/ml) and plated at a density of 2 × 10^4 cells on glass-bottom dishes. Precultured cortical astrocytes on glass coverslips (13 mm φ) were transferred to the dishes so that astrocytes were faced to neurons. The cultures were maintained at 37°C in a 95% air and 5% CO2 humidified incubator. The culture medium was replaced every 7 days, and the neurons were used at 16 to 18 days in vitro (DIV).
Calcein Red AM (50 nM; AAT Bioquest) was added to the cultured neurons for 30 min at 37°C to visualize the intracellular region. The cells were washed with Hepes-based ACSF [25 mM Hepes (pH 7.4), 140 mM NaCl, 5 mM KCl, 1.3 mM CaCl2, 2 mM MgCl2, and 33 mM glucose], and 100 nM PFQX1(AF488) in Hepes-based ACSF was added to the dish.
For evaluating the concentration dependency of PFQX1(AF488), the cells were treated with 1 nM PFQX1(AF488). Then, PFQX1(AF488) in Hepes-based ACSF was added stepwise to the dish to a final concentration of 3, 10, 30, 100, 300, and 1000 nM. To quantify the concentration dependency after cLTP, the procedure described above was conducted after cLTP stimulation as described in the section “cLTP and quantification of cell-surface AMPARs.” The average intensity of ROIs set on spines was calculated by ZEN blue software after subtracting background fluorescence. The intensity was fitted with KaleidaGraph to calculate the equilibrium constant value using the following equation: a + (b − a)/(1 + (x/c)^d). The equilibrium constant is regarded as the Kd in this study.

[3] = system: Halo-tag-fused GluA2 in HEK293T cells; assay: Exocytosis assay of AMPARs in HEK293T cells (Halo-tag pulse labeling); type: cell-based; settings: 25 µM, 2 h at 37 °C
Experimental: Exocytosis assay of AMPARs in HEK293T cells
HEK293T cells expressing Halo-tag-GluA2 flip(Q)-3’UTR were treated with Halo-tag ligand-Alexa488 (HTL(AF488)) for 30 min at room temperature as a first pulse. After washing with DMEM three times, the cells were incubated with 25 µM brefeldin A or DMSO for 2 h at 37 °C in a 95% air and 5% CO2 humidified incubator. Then, HTL(AF647) was added to the dishes and incubated for 15 min at room temperature as a second pulse to visualize spontaneous exocytosed AMPARs. Labeled cells were fixed with 4% PFA for 15 min. The fluorescent images were obtained using confocal […]
General materials and methods for organic synthesis
All chemical reagents and solvents were purchased from commercial sources (FUJIFILM Wako pure chemical, TCI chemical, Sigma-Aldrich, Click Chemistry Tools, BroadPharm) and were used without further purification. Thin-layer chromatography (TLC) was performed on silica gel 60 F254 precoated aluminum sheets (Merck).
Chromatographic purification was performed by flash column chromatography on silica gel 60 N (neutral, 40–50 µm, Kanto Chemical). 1H-NMR spectra were recorded in deuterated solvents on an Avance III HD 300 MHz or 500 MHz (Bruker). […] High-resolution mass spectra were measured on a Compact (Bruker) equipped with electron spray ionization (ESI). […]

GluA1–4 = assay: Fluorescence Ca2+ assay, inhibition of glutamate-induced response in HEK293T cells transfected with GluA1-4; type: cell-based, mouse; settings: 30 µM glutamate-induced Ca2+ response; GluA1–4 in HEK293T cells
Experimental: HEK293T cells transfected with Ca2+-permeable GluA1–4 (GluA1 flip(Q), GluA2flip(Q), GluA3flip(Q) (Y454A/R461G), and GluA4flip(Q)) or GluK2(Q) were seeded on the 96 well plate. The cells were loaded with 5 µM Cal-520 AM (AAT Bioquest) in the culture medium for 2 h and washed with HBS using AquaMax 2000 (Molecular devices). The imaging experiment was carried out in an HBS buffer. For the fluorescence Ca2+ imaging, PFQX-amine was pretreated to the cells for 3 min followed by the addition of 30 µM glutamate with 100 µM cyclothiazide as a desensitization inhibitor for AMPARs and 100 µM kainic acid with 100 µM BPAM344 as a desensitization inhibitor for kainate receptors.
Fluorescent intensity of Cal-520 was obtained using FlexStation3 (Molecular devices), and analyzed with SoftMax Pro 7 (Molecular devices). ΔRFU was defined as the difference between the maximum intensity value after adding glutamate and the average intensity value before adding the glutamate. ΔRFU was fitted with KaleidaGraph.
Immunostaining of cultured neurons
The cultured hippocampal neurons were fixed with cold methanol for 5 min and washed with PBS three times. Fixed cells were incubated with Blocking One Histo (Nacalai Tesque) for 10 min. The cells were washed with PBS containing 0.05% Tween 20 (PBS-T) once and incubated with primary antibodies in PBS-T containing 5% Blocking One Histo at room temperature for 2 h. […]

AMPARs [4] = target: AMPARs; design: method as in earlier work; settings: read-out: inhibition constant (Ki) for AMPARs; cited from earlier work

## COc1ccc(S(=O)(=O)N(CCO)c2ccccc2CN(C)C/C=C/c2ccc(Cl)cc2)cc1 [KN93]
[1]
  effect on the increase in PFQX1(AF488) fluorescence in spines after cLTP stimulation: suppressed the increase in PFQX1(AF488) fluorescence

## NS(=O)(=O)c1cccc2c1c([N+](=O)[O-])cc1[nH]c(=O)c(=O)[nH]c12 [NBQX, 2,3-dioxo-6-nitro-1,2,3,4-tetrahydrobenzo(f)quinoxaline-7-sulfonamide, reference compound]
AMPARs [2]
  competitive inhibition of PFQX1(AF488) binding in cerebellar slices: significantly weakened
Native AMPARs
  competitive inhibition of PFQX1(AF488) binding in neurons: fluorescent signals from the puncta disappeared

## C[C@]12N[C@H](Cc3ccccc31)c1ccccc12 [MK-801]
[1]
  effect on the increase in PFQX1(AF488) fluorescence in spines after cLTP stimulation: suppressed the increase in PFQX1(AF488) fluorescence

## NC(CCCP(=O)(O)O)C(=O)O (stereo not drawn) [AP5]
[1]
  effect on the increase in PFQX1(AF488) fluorescence in spines after cLTP stimulation: suppressed the increase in PFQX1(AF488) fluorescence; also recorded: increase in both PFQX1(AF488) and ST647 fluorescence was not observed

## C[C@H]1CCC/C=C/[C@@H]2C[C@H](O)C[C@H]2[C@H](O)/C=C/C(=O)O1 [brefeldin A]
[3]
  effect on spontaneous exocytosis of Halo-tag-fused AMPAR to the cell surface: markedly suppressed the spontaneous exocytosis
[1]
  effect on the increase in PFQX1(AF488) fluorescence in spines after cLTP stimulation: inhibited the fluorescent increase in PFQX1(AF488)

## O=c1[nH]c2cc(-n3cccc3)c(C(F)(F)F)cc2[nH]c1=O [PFQX, 6-pyrrolyl-7-trifluoromethyl-quinoxaline-2,3-dione]
GluA1–4
  antagonism of AMPAR subunits: antagonized AMPARs in a subunit-nonspecific manner
AMPARs [4]
  Ki: 170 nM
